Experimental data published in publication PMC12017303 (Science Advances, 2025).

What was measured:
in vitro [1] = details: PAMPA, pH 7.4
SARS-CoV-2 M^Pro = SARS-CoV-2 M^Pro (Severe acute respiratory syndrome coronavirus 2, UniProt P0DTD1); assay: biochemical
in vitro [2] = details: human
[3] = CD1, mouse, in vivo
SARS-CoV Urbani = assay: microbe, parasite or virus in culture; assay type: cell-based; design: SI90 / SI50: unit not given beside the values
MERS-CoV EMC = assay: microbe, parasite or virus in culture; assay type: cell-based; design: SI50 / SI90: unit not given beside the values
[4] = Severe acute respiratory syndrome coronavirus, Vero C1008
[5] = Middle East respiratory syndrome-related coronavirus, Vero C1008

With `O=c1[nH]c(-c2cccc(Cl)c2)c(-n2nnc3ccccc32)c(=O)n1-c1cncc2ccccc12` [AVI-4303] the Papp (in vitro [1]) was 6.6 ×10⁻⁶ cm/s, the IC50 (SARS-CoV-2 M^Pro) was 300 nM and the CC50 (in vitro [2]) was greater than 100000 nM. It also gave a viability at 100 µM (in vitro [2]) of 92.3%.
Work on `O=C1CCN(Cc2cccc(Cl)c2)C(=O)N1Cc1ccc[nH]c1=O` [AVI-3993] yielded an IC50 (SARS-CoV-2 M^Pro) of 8500 nM.
`O=C1CCN(Cc2csc(Cl)c2)C(=O)N1Cc1ccc[nH]c1=O` [AVI-3570] gave an IC50 (SARS-CoV-2 M^Pro) of 1500 nM, a CC50 (in vitro [2]) greater than 100000 nM and a viability at 100 µM (in vitro [2]) of 100%.
Compound `O=C1CCN(Cc2cccs2)C(=O)N1Cc1ccc[nH]c1=O` [AVI-1084] has a CC50 (in vitro [2]) greater than 100000 nM and a viability at 100 µM (in vitro [2]) of 100%.
In the case of `Cn1cnc(Cn2c(=O)[nH]/c(=N\c3cc4cn(C)nc4cc3Cl)n(Cc3cc(F)c(F)cc3F)c2=O)n1` [ensitrelvir, reference compound], the “Brain, Mean” value [3] is reported as 47.9 ng/g.
With `O=C1CCN(Cc2csc(Cl)c2)C(=O)N1c1cncc2ccccc12` [AVI-3778] the Papp (in vitro [1]) was 26.4 ×10⁻⁶ cm/s, the IC50 (SARS-CoV-2 M^Pro) was 850 nM and the “M^Pro inhibition, result in words” value (SARS-CoV-2 M^Pro) was “submicromolar potencies”. The CC50 (in vitro [2]) was greater than 100000 nM and the viability at 100 µM (in vitro [2]) was 95.7%.
`CCC(CC)COC(=O)[C@H](C)N[P@](=O)(OC[C@H]1O[C@@](C#N)(c2ccc3c(N)ncnn23)[C@H](O)[C@@H]1O)Oc1ccccc1` [remdesivir, reference compound] showed an SI50 (SARS-CoV Urbani) greater than 83, an SI90 (SARS-CoV Urbani) greater than 71 and an EC50 (SARS-CoV Urbani; [4]) of 120 nM. It also gave an EC90 (SARS-CoV Urbani; [4]) of 140 nM, an SI50 (MERS-CoV EMC) of 540 and an SI90 (MERS-CoV EMC) of 51. It also gave an EC50 (MERS-CoV EMC; [5]) of 3.7 nM and an EC90 (MERS-CoV EMC; [5]) of 39 nM.
For `O=c1cc(-c2cccc(Cl)c2)[nH]c(=O)n1-c1cncc2ccccc12` [AVI-4301], the Papp (in vitro [1]) was 31.8 ×10⁻⁶ cm/s, the IC50 (SARS-CoV-2 M^Pro) was 6400 nM and the CC50 (in vitro [2]) was greater than 100000 nM. For the same compound, the viability at 100 µM (in vitro [2]) was 100%.
In the case of `O=C1CCN(Cc2cccc(Cl)c2)C(=O)N1c1cncc2ccccc12` [AVI-3779], the Papp (in vitro [1]) is reported as 23.9 ×10⁻⁶ cm/s, the IC50 (SARS-CoV-2 M^Pro) is reported as 660 nM and the “M^Pro inhibition, result in words” value (SARS-CoV-2 M^Pro) is reported as “submicromolar potencies”. For the same compound, the CC50 (in vitro [2]) was greater than 100000 nM and the viability at 100 µM (in vitro [2]) was 100%.
For `O=C1CCN(Cc2cccc(F)c2)C(=O)N1c1cncc2ccccc12` [AVI-3780], the Papp (in vitro [1]) was 19.6 ×10⁻⁶ cm/s, the IC50 (SARS-CoV-2 M^Pro) was 800 nM and the “M^Pro inhibition, result in words” value (SARS-CoV-2 M^Pro) was “submicromolar potencies”. The CC50 (in vitro [2]) was greater than 100000 nM and the viability at 100 µM (in vitro [2]) was 100%.
Work on `O=C1CCN(Cc2ccsc2)C(=O)N1Cc1ccc[nH]c1=O` [AVI-3320] yielded an IC50 (SARS-CoV-2 M^Pro) of 23000 nM, a CC50 (in vitro [2]) greater than 100000 nM and a viability at 100 µM (in vitro [2]) of 100%.
With `O=C1CCN(Cc2cc(Cl)cs2)C(=O)N1Cc1ccc[nH]c1=O` [AVI-3318] the IC50 (SARS-CoV-2 M^Pro) was 4600 nM, the CC50 (in vitro [2]) was greater than 100000 nM and the viability at 100 µM (in vitro [2]) was 88.9%.
